How the values were obtained:
Experiment in all cases: Greenhouse multispecies herbicide screen with/without P. mendocina enzyme
Assay type in all cases: in vivo
Giant Fox Tail [1] = test system: Giant Fox Tail
Experimental: (§1) Several plant species including weeds and crops are used in these experiments.
A number of herbicides from various chemical classes were compared in a multispecies screen for percent chlorosis, necrosis and vigor reduction both with and without application of the enzyme from Pseudomonas mendocina ATCC 53552 described earlier. […] Two different enzyme concentrations were used: 0.5 mg/ml (HE) and 0.05 mg/ml (LE) and applied at the rate of 40 gallons/acre. All spraying solutions were at pH 10 and contained 100 mm sodium phosphate each. Ratings were done at 6 and 12 days after the treatment. All the experiments were carried out in a greenhouse.
(§2) Chlorosis--figures represent percent of plants showing chlorosis.
(§3) Necrosis--figures represent percent of plants showing necrosis.
(§4) Vigor--figures represent percent of plants showing decreased vigor.
(§5) Phytotoxicity--figures represent the average percent of chlorosis, necrosis, and vigor for a given sample.

Giant Fox Tail [2] = settings: HYVAR 18%, two weeks after treatment
Turnip = settings: one week after treatment
Description: as §1
(§6) A number of herbicides from various chemical classes were compared in a multispecies screen for percent chlorosis, necrosis and vigor reduction both with and without application of the enzyme from Pseudomonas mendocina ATCC 53552 described earlier. The herbicides were applied to various plants at the manufacturers recommended doses and at 10% and 40% of the recommended dose. Two different enzyme concentrations were used: 0.5 mg/ml (HE) and 0.05 mg/ml (LE) and applied at the rate of 40 gallons/acre. All spraying solutions were at pH 10 and contained 100 mm sodium phosphate each. Ratings were done at 6 and 12 days after the treatment. All the experiments were carried out in a greenhouse.
as §2, §3, §4, §5
(§7) The method of Example 1 was used except that the enzyme was applied 2 hours prior to administering the agricultural chemical with the following results. Ratings were done two weeks after treatment

Soybeans = settings: one week after treatment
Description: as §1, §6, §2, §3, §4, §5, §7

[3] = HYVAR 10% dose, High Enzyme, one week after treatment
[4] = HYVAR 10% dose, Low Enzyme, one week after treatment
[5] = HYVAR 10% dose, No Enzyme, one week after treatment
[6] = HYVAR 18%, High Enzyme, two weeks after treatment
[7] = HYVAR 18%, Low Enzyme, two weeks after treatment
[8] = HYVAR 18%, No Enzyme, two weeks after treatment
[9] = HYVAR 40% dose, High Enzyme, one week after treatment
[10] = HYVAR 40% dose, Low Enzyme, one week after treatment
[11] = HYVAR 40% dose, No Enzyme, one week after treatment
[12] = HYVAR 100% dose, No Enzyme, one week after treatment

CCC(C)n1c(=O)[nH]c(C)c(Br)c1=O (stereo not drawn) [HYVAR, 5-bromo-6-methyl-3-(1-methylpropyl)-2,4-(1H,3H)-pyrimidinedione]
CHL (chlorosis) (Giant Fox Tail [1]; [3]): 18%
NEC (necrosis) (Giant Fox Tail [1]; [3]): 18%
PHY (phytotoxicity) (Giant Fox Tail [1]; [3]): 22%
VIG (vigor) (Giant Fox Tail [1]; [3]): 30%
CHL (chlorosis) (Giant Fox Tail [1]; [4]): 50%
NEC (necrosis) (Giant Fox Tail [1]; [4]): 30%
PHY (phytotoxicity) (Giant Fox Tail [1]; [4]): 43%
VIG (vigor) (Giant Fox Tail [1]; [4]): 50%
CHL (chlorosis) (Giant Fox Tail [1]; [5]): 40%
NEC (necrosis) (Giant Fox Tail [1]; [5]): 30%
PHY (phytotoxicity) (Giant Fox Tail [1]; [5]): 40%
VIG (vigor) (Giant Fox Tail [1]; [5]): 50%
NEC (necrosis) (Giant Fox Tail [1]; [6]): 75%
PHY (phytotoxicity) (Giant Fox Tail [1]; [6]): 75%
VIG (vigor) (Giant Fox Tail [1]; [6]): 75%
CHL (chlorosis) (Giant Fox Tail [1]; [7]): 73%
PHY (phytotoxicity) (Giant Fox Tail [1]; [7]): 73%
CHL (chlorosis) (Giant Fox Tail [1]; [8]): 65%
NEC (necrosis) (Giant Fox Tail [1]; [8]): 63%
PHY (phytotoxicity) (Giant Fox Tail [1]; [8]): 64%
VIG (vigor) (Giant Fox Tail [1]; [8]): 63%
CHL (chlorosis) (Giant Fox Tail [1]; [9]): 38%
NEC (necrosis) (Giant Fox Tail [1]; [9]): 50%
PHY (phytotoxicity) (Giant Fox Tail [1]; [9]): 30%
VIG (vigor) (Giant Fox Tail [1]; [9]): 63%
CHL (chlorosis) (Giant Fox Tail [1]; [10]): 43%
NEC (necrosis) (Giant Fox Tail [1]; [10]): 65%
PHY (phytotoxicity) (Giant Fox Tail [1]; [10]): 57%
VIG (vigor) (Giant Fox Tail [1]; [10]): 63%
CHL (chlorosis) (Giant Fox Tail [1]; [11]): 50%
NEC (necrosis) (Giant Fox Tail [1]; [11]): 38%
PHY (phytotoxicity) (Giant Fox Tail [1]; [11]): 48%
VIG (vigor) (Giant Fox Tail [1]; [11]): 55%
CHL (chlorosis) (Giant Fox Tail [1]; [12]): 60%
NEC (necrosis) (Giant Fox Tail [1]; [12]): 60%
PHY (phytotoxicity) (Giant Fox Tail [1]; [12]): 65%
VIG (vigor) (Giant Fox Tail [1]; [12]): 75%
CHL (chlorosis) (Giant Fox Tail [2]; High Enzyme): 75%
NEC (necrosis) (Giant Fox Tail [2]; Low Enzyme): 73%
VIG (vigor) (Giant Fox Tail [2]; Low Enzyme): 73%
CK (chlorosis) (Turnip; HYVAR 10% dose, High Enzyme): 50%
NEC (necrosis) (Turnip; HYVAR 10% dose, High Enzyme): 85%
PHY (phytotoxicity) (Turnip; HYVAR 10% dose, High Enzyme): 73%
VIG (vigor) (Turnip; HYVAR 10% dose, High Enzyme): 83%
CK (chlorosis) (Turnip; HYVAR 10% dose, Low Enzyme): 70%
NEC (necrosis) (Turnip; HYVAR 10% dose, Low Enzyme): 90%
PHY (phytotoxicity) (Turnip; HYVAR 10% dose, Low Enzyme): 84%
VIG (vigor) (Turnip; HYVAR 10% dose, Low Enzyme): 93%
CK (chlorosis) (Turnip; HYVAR 10% dose, No Enzyme): 70%
NEC (necrosis) (Turnip; HYVAR 10% dose, No Enzyme): 93%
PHY (phytotoxicity) (Turnip; HYVAR 10% dose, No Enzyme): 84%
VIG (vigor) (Turnip; HYVAR 10% dose, No Enzyme): 90%
CK (chlorosis) (Turnip; HYVAR 40% dose, High Enzyme): 97%
NEC (necrosis) (Turnip; HYVAR 40% dose, High Enzyme): 97%
PHY (phytotoxicity) (Turnip; HYVAR 40% dose, High Enzyme): 97%
VIG (vigor) (Turnip; HYVAR 40% dose, High Enzyme): 98%
CK (chlorosis) (Turnip; HYVAR 40% dose, Low Enzyme): 93%
NEC (necrosis) (Turnip; HYVAR 40% dose, Low Enzyme): 95%
PHY (phytotoxicity) (Turnip; HYVAR 40% dose, Low Enzyme): 94%
VIG (vigor) (Turnip; HYVAR 40% dose, Low Enzyme): 95%
CK (chlorosis) (Turnip; HYVAR 40% dose, No Enzyme): 65%
NEC (necrosis) (Turnip; HYVAR 40% dose, No Enzyme): 73%
PHY (phytotoxicity) (Turnip; HYVAR 40% dose, No Enzyme): 74%
VIG (vigor) (Turnip; HYVAR 40% dose, No Enzyme): 85%
CK (chlorosis) (Turnip; HYVAR 100% dose, No Enzyme): 100%
NEC (necrosis) (Turnip; HYVAR 100% dose, No Enzyme): 95%
PHY (phytotoxicity) (Turnip; HYVAR 100% dose, No Enzyme): 95%
VIG (vigor) (Turnip; HYVAR 100% dose, No Enzyme): 90%
CHL (chlorosis) (Soybeans; HYVAR 10% dose, High Enzyme): 25%
NEC (necrosis) (Soybeans; HYVAR 10% dose, High Enzyme): 50%
PHY (phytotoxicity) (Soybeans; HYVAR 10% dose, High Enzyme): 42%
VIG (vigor) (Soybeans; HYVAR 10% dose, High Enzyme): 50%
CHL (chlorosis) (Soybeans; HYVAR 10% dose, Low Enzyme): 90%
NEC (necrosis) (Soybeans; HYVAR 10% dose, Low Enzyme): 83%
PHY (phytotoxicity) (Soybeans; HYVAR 10% dose, Low Enzyme): 88%
VIG (vigor) (Soybeans; HYVAR 10% dose, Low Enzyme): 90%
CHL (chlorosis) (Soybeans; HYVAR 10% dose, No Enzyme): 55%
NEC (necrosis) (Soybeans; HYVAR 10% dose, No Enzyme): 75%
PHY (phytotoxicity) (Soybeans; HYVAR 10% dose, No Enzyme): 68%
VIG (vigor) (Soybeans; HYVAR 10% dose, No Enzyme): 75%
CHL (chlorosis) (Soybeans; HYVAR 40% dose, High Enzyme): 45%
NEC (necrosis) (Soybeans; HYVAR 40% dose, High Enzyme): 50%
PHY (phytotoxicity) (Soybeans; HYVAR 40% dose, High Enzyme): 59%
VIG (vigor) (Soybeans; HYVAR 40% dose, High Enzyme): 83%
CHL (chlorosis) (Soybeans; HYVAR 40% dose, Low Enzyme): 55%
NEC (necrosis) (Soybeans; HYVAR 40% dose, Low Enzyme): 88%
PHY (phytotoxicity) (Soybeans; HYVAR 40% dose, Low Enzyme): 72%
VIG (vigor) (Soybeans; HYVAR 40% dose, Low Enzyme): 73%
CHL (chlorosis) (Soybeans; HYVAR 40% dose, No Enzyme): 45%
NEC (necrosis) (Soybeans; HYVAR 40% dose, No Enzyme): 60%
PHY (phytotoxicity) (Soybeans; HYVAR 40% dose, No Enzyme): 39%
VIG (vigor) (Soybeans; HYVAR 40% dose, No Enzyme): 73%
CHL (chlorosis) (Soybeans; HYVAR 100% dose, No Enzyme): 100%
NEC (necrosis) (Soybeans; HYVAR 100% dose, No Enzyme): 100%
PHY (phytotoxicity) (Soybeans; HYVAR 100% dose, No Enzyme): 100%
VIG (vigor) (Soybeans; HYVAR 100% dose, No Enzyme): 100%
